Molecular target: T1, BbrY_0420 (SBP of the ABC transporter) (Bifidobacterium breve, UniProt A0AAX3NJV5)
T1 sequence (A0AAX3NJV5 1-449): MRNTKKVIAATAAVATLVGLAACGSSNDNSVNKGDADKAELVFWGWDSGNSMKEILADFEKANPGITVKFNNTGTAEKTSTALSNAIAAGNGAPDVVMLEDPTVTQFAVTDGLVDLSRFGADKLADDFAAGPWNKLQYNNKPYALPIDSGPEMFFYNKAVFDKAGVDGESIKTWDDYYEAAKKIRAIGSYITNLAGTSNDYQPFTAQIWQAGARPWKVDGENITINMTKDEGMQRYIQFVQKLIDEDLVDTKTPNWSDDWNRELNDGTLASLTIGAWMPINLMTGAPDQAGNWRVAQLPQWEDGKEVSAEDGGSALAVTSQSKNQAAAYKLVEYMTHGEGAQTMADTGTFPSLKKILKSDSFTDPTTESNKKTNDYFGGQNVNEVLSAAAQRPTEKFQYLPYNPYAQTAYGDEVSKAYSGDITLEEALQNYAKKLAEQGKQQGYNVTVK
Conditions: HBS-P+ buffer, 25 °C, one-site binding model

Kd: 10.4 µM
Compound: OC[C@H]1O[C@@H](O[C@@H]2[C@H](O)[C@@H](O)[C@H](O[C@H]3[C@H](O)[C@@H](O)C(O)O[C@@H]3CO)O[C@@H]2CO)[C@H](O)[C@@H](O)[C@H]1O (stereo partly shown) [4′-GL, 4′-galactosyllactose]

From publication PMC4635504, “Characterization of a bifidobacterial system that utilizes galacto-oligosaccharides” (Microbiology, 2015)
